Measured values: ChEMBL document CHEMBL4630909 (2021)

Assays:
[1] = target: Muscarinic acetylcholine receptor M1 (Homo sapiens, UniProt P11229); assay: (§1) Cross screening panel
[2] = target: Muscarinic acetylcholine receptor M2 (Homo sapiens, UniProt P08172); assay: as §1
[3] = target: Nuclear receptor subfamily 1 group I member 2 (Homo sapiens, UniProt O75469); assay: as §1
[4] = target: Phosphatidylinositol 4,5-bisphosphate 3-kinase catalytic subunit gamma isoform (Homo sapiens, UniProt P48736); assay: as §1
[5] = target: Potassium voltage-gated channel subfamily A member 5 (Homo sapiens, UniProt P22460); assay: as §1
[6] = target: Prostaglandin G/H synthase 2 (Homo sapiens, UniProt P35354); assay: as §1
[7] = target: Sodium channel protein type 5 subunit alpha (Homo sapiens, UniProt Q14524); assay: as §1
[8] = target: Sodium-dependent noradrenaline transporter (Homo sapiens, UniProt P23975); assay: as §1
[9] = target: Sodium-dependent serotonin transporter (Homo sapiens, UniProt P31645); assay: as §1
[10] = target: Solute carrier organic anion transporter family member 1B1 (Homo sapiens, UniProt Q9Y6L6); assay: as §1
[11] = target: Substance-P receptor (Homo sapiens, UniProt P25103); assay: as §1
[12] = target: Tyrosine-protein kinase Lck (Homo sapiens, UniProt P06239); assay: as §1
[13] = target: Vasopressin V1a receptor (Homo sapiens, UniProt P37288); assay: as §1
[14] = target: Voltage-dependent L-type calcium channel subunit alpha-1C (Homo sapiens, UniProt Q13936); assay: as §1
[15] = target: cGMP-inhibited 3',5'-cyclic phosphodiesterase 3A (Homo sapiens, UniProt Q14432); assay: as §1
[16] = target: GABA-A receptor; anion channel; assay: as §1; format: protein-complex assay
[17] = target: Voltage-gated potassium channel, IKs; KCNQ1(Kv7.1)/KCNE1(MinK) (Homo sapiens, UniProt P15382+P51787); assay: as §1; format: protein-complex assay
[18] = target: GABA-A receptor; anion channel; assay: as §1; format: protein-complex assay; remark: listed apart in the source
[19] = target: 5-hydroxytryptamine receptor 1A (Homo sapiens) (UniProt P08908); conditions: Compound concentration 10.0 uM
[20] = target: 5-hydroxytryptamine receptor 1B (Homo sapiens, UniProt P28222); conditions: Compound concentration 10.0 uM
[21] = target: 5-hydroxytryptamine receptor 2A (Homo sapiens, UniProt P28223); conditions: Compound concentration 10.0 uM
[22] = target: 5-hydroxytryptamine receptor 2B (Homo sapiens) (UniProt P41595); conditions: Compound concentration 10.0 uM
[23] = target: 5-hydroxytryptamine receptor 2C (Homo sapiens) (UniProt P28335); conditions: Compound concentration 10.0 uM
[24] = target: 5-hydroxytryptamine receptor 3A (Homo sapiens) (UniProt P46098); conditions: Compound concentration 10.0 uM
[25] = target: 5-hydroxytryptamine receptor 5A (Homo sapiens) (UniProt P47898); conditions: Compound concentration 10.0 uM
[26] = target: 5-hydroxytryptamine receptor 6 (Homo sapiens) (UniProt P50406); conditions: Compound concentration 10.0 uM
[27] = target: 5-hydroxytryptamine receptor 7 (Homo sapiens) (UniProt P34969); conditions: Compound concentration 10.0 uM
Sequence of 5-hydroxytryptamine receptor 7 (Homo sapiens) (P34969 whole entry): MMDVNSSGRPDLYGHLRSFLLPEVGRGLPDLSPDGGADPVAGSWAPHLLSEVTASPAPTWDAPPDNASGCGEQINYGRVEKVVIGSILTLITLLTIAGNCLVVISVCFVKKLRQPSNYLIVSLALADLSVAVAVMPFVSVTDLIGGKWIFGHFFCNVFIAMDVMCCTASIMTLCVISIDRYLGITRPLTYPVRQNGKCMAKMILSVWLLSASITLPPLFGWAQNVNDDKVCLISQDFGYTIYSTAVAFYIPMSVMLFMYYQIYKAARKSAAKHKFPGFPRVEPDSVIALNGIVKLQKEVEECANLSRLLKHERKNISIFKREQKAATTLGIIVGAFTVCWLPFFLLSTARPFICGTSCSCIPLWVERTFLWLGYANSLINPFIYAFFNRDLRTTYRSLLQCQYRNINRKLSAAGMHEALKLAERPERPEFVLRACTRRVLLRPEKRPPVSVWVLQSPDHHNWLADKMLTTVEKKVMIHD

[28] = target: D(1A) dopamine receptor (Homo sapiens, UniProt P21728); conditions: Compound concentration 10.0 uM
[29] = target: D(2) dopamine receptor (Homo sapiens, UniProt P14416); conditions: Compound concentration 10.0 uM
[30] = target: D(3) dopamine receptor (Homo sapiens) (UniProt P35462); conditions: Compound concentration 10.0 uM
[31] = target: D(4) dopamine receptor (Homo sapiens) (UniProt P21917); conditions: Compound concentration 10.0 uM
[32] = target: D(1B) dopamine receptor (Homo sapiens) (UniProt P21918); conditions: Compound concentration 10.0 uM
[33] = target: Mu-type opioid receptor (Homo sapiens, UniProt P35372); conditions: Compound concentration 10.0 uM
Sequence of Mu-type opioid receptor (P35372 whole entry): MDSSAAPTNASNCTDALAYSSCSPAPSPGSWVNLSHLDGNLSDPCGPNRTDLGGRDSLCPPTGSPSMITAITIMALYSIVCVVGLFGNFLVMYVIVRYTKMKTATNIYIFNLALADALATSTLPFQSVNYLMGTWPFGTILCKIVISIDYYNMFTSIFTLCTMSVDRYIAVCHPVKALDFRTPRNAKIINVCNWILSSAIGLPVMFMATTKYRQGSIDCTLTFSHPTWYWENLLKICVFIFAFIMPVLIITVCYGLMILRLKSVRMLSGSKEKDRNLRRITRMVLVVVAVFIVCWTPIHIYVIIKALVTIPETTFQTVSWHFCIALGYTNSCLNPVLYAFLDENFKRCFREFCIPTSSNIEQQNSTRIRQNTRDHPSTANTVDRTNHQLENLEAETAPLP

[34] = target: Delta-type opioid receptor (Homo sapiens) (UniProt P41143); conditions: Compound concentration 10.0 uM
[35] = target: Kappa-type opioid receptor (Homo sapiens, UniProt P41145); conditions: Compound concentration 10.0 uM
[36] = target: T1, GABA-A receptor; anion channel (Rattus norvegicus) (UniProt O09028+P15431+P18506+P18508+P19969+P20236+P23574+P23576+P28471+P28473+P30191+P62813+P63079+P63138+Q91ZM7+Q9ES14); conditions: Compound concentration 10.0 uM
[37] = target: Histamine H2 receptor (Homo sapiens) (UniProt P25021); conditions: Compound concentration 10.0 uM
[38] = target: Histamine H3 receptor (Homo sapiens) (UniProt Q9Y5N1); conditions: Compound concentration 10.0 uM
[39] = target: Histamine H4 receptor (Homo sapiens) (UniProt Q9H3N8); conditions: Compound concentration 10.0 uM
[40] = target: Alpha-1A adrenergic receptor (Homo sapiens) (UniProt P35348); conditions: Compound concentration 10.0 uM
[41] = target: Alpha-1B adrenergic receptor (Homo sapiens) (UniProt P35368); conditions: Compound concentration 10.0 uM
Sequence of Alpha-1B adrenergic receptor (Homo sapiens) (P35368 whole entry): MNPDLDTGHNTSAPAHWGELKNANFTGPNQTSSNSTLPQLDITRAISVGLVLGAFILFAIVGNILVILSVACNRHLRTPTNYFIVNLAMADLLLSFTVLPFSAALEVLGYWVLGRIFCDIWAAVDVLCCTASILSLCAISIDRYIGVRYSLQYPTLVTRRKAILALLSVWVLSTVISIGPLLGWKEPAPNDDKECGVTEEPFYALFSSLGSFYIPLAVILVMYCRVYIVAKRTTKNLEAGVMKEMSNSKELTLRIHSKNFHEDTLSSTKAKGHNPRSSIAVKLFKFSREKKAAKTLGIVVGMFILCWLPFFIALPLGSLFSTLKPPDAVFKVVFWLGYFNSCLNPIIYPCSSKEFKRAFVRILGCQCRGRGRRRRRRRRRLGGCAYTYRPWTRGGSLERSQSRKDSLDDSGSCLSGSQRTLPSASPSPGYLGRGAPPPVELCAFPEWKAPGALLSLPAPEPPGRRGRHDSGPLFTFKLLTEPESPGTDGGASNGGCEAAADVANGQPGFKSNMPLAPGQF

[42] = target: Alpha-2A adrenergic receptor (Homo sapiens) (UniProt P08913); conditions: Compound concentration 10.0 uM
[43] = target: Alpha-2B adrenergic receptor (Homo sapiens) (UniProt P18089); conditions: Compound concentration 10.0 uM
Sequence of Alpha-2B adrenergic receptor (Homo sapiens) (P18089 whole entry): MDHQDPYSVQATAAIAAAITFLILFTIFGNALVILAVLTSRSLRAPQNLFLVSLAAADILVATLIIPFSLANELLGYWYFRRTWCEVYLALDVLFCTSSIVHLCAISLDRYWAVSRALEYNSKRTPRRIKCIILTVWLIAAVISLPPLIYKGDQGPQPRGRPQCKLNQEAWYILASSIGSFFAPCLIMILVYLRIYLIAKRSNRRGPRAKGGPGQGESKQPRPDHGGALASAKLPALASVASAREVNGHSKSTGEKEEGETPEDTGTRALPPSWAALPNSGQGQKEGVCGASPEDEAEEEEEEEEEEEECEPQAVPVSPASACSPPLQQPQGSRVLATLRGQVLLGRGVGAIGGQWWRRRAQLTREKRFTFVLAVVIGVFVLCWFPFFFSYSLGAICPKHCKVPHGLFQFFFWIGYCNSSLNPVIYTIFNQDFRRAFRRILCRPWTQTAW

[44] = target: Alpha-2C adrenergic receptor (Homo sapiens) (UniProt P18825); conditions: Compound concentration 10.0 uM
[45] = target: Beta-1 adrenergic receptor (Homo sapiens) (UniProt P08588); conditions: Compound concentration 10.0 uM
Sequence of Beta-1 adrenergic receptor (Homo sapiens) (P08588 whole entry, looked up): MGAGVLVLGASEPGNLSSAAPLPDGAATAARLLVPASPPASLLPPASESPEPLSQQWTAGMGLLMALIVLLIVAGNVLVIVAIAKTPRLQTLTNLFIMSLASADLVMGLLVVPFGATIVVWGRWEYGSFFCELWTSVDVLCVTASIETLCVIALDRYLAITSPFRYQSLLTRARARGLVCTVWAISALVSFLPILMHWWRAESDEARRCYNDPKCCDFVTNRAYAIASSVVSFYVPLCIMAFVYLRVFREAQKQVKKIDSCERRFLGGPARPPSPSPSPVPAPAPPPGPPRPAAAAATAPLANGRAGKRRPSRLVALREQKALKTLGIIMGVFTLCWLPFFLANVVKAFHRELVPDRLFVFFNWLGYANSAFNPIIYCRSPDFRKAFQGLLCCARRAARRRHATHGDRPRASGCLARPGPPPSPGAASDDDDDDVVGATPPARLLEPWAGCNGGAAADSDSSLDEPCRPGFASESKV

[46] = target: Beta-2 adrenergic receptor (Homo sapiens, UniProt P07550); conditions: Compound concentration 10.0 uM
Sequence of Beta-2 adrenergic receptor (P07550 whole entry, looked up): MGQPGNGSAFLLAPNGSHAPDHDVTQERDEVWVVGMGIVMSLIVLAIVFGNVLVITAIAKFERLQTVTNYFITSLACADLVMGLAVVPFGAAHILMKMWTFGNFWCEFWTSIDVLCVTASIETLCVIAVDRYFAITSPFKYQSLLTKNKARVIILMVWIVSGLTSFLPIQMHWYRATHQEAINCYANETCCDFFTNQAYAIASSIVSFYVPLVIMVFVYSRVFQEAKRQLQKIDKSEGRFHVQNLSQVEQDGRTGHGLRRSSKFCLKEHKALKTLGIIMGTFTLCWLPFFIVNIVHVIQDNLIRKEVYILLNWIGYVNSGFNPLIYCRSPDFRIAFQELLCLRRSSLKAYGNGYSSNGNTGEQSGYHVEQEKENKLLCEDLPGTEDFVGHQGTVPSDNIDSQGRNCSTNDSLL

[47] = target: Muscarinic acetylcholine receptor M2 (Homo sapiens) (UniProt P08172); conditions: Compound concentration 10.0 uM
Sequence of Muscarinic acetylcholine receptor M2 (Homo sapiens) (P08172 whole entry): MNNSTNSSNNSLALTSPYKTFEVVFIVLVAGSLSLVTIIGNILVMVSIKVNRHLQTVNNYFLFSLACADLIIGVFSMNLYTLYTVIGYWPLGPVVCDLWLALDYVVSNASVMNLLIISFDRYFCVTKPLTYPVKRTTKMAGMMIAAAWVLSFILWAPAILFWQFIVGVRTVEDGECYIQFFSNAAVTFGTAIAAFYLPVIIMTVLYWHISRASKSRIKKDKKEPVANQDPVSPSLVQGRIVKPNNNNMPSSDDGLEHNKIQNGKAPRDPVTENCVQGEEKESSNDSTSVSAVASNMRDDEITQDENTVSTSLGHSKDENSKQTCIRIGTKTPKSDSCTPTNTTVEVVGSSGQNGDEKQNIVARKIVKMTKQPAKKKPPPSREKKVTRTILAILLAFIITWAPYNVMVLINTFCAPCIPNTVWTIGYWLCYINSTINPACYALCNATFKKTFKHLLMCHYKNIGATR

[48] = target: Muscarinic acetylcholine receptor M3 (Homo sapiens) (UniProt P20309); conditions: Compound concentration 10.0 uM
[49] = target: Muscarinic acetylcholine receptor M4 (Homo sapiens) (UniProt P08173); conditions: Compound concentration 10.0 uM
Sequence of Muscarinic acetylcholine receptor M4 (Homo sapiens) (P08173 whole entry): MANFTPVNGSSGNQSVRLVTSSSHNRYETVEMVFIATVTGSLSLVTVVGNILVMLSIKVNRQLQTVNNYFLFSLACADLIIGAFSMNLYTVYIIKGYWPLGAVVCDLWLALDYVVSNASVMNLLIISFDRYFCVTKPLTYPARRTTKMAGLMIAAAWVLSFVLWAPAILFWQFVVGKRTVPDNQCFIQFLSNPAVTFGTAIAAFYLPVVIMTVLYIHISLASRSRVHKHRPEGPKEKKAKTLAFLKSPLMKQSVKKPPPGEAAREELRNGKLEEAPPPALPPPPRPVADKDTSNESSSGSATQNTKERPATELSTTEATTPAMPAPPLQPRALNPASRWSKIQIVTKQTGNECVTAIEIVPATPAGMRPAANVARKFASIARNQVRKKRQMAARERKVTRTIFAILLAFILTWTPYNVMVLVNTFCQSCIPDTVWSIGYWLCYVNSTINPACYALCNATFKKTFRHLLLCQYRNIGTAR

[50] = target: Muscarinic acetylcholine receptor M5 (Homo sapiens) (UniProt P08912); conditions: Compound concentration 10.0 uM
[51] = target: Beta-3 adrenergic receptor (Homo sapiens) (UniProt P13945); conditions: Compound concentration 10.0 uM
[52] = target: T1, GABA-A receptor; anion channel (Rattus norvegicus); conditions: Compound concentration 10.0 uM; remark: listed apart in the source
[53] = species on record: Rattus norvegicus; conditions: Compound concentration 10.0 uM
[54] = target: Alpha-1D adrenergic receptor (Homo sapiens) (UniProt P25100); conditions: Compound concentration 10.0 uM
[55] = target: Sigma intracellular receptor 2 (Homo sapiens) (UniProt Q5BJF2); conditions: Compound concentration 10.0 uM
Sequence of Sigma intracellular receptor 2 (Homo sapiens) (Q5BJF2 whole entry): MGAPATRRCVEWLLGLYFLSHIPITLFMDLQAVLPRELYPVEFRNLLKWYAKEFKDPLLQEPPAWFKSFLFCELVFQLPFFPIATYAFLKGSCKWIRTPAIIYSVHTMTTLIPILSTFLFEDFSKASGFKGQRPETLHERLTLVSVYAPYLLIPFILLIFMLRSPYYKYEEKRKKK

Sequence of Muscarinic acetylcholine receptor M2 (P08172 whole entry): as the sequence (P08172 whole entry) above
Sequence of Nuclear receptor subfamily 1 group I member 2 (O75469 whole entry, canonical isoform): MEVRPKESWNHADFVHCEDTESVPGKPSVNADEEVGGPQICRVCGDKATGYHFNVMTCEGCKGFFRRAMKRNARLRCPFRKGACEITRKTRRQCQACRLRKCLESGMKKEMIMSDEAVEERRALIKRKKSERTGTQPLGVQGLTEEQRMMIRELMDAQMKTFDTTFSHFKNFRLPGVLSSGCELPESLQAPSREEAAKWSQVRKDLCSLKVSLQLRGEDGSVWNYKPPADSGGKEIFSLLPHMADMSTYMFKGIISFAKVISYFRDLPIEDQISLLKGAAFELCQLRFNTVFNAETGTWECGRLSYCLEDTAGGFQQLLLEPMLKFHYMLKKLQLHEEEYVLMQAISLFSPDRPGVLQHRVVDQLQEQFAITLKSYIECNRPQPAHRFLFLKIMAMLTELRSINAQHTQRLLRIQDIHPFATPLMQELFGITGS
Sequence of Muscarinic acetylcholine receptor M1 (P11229 whole entry): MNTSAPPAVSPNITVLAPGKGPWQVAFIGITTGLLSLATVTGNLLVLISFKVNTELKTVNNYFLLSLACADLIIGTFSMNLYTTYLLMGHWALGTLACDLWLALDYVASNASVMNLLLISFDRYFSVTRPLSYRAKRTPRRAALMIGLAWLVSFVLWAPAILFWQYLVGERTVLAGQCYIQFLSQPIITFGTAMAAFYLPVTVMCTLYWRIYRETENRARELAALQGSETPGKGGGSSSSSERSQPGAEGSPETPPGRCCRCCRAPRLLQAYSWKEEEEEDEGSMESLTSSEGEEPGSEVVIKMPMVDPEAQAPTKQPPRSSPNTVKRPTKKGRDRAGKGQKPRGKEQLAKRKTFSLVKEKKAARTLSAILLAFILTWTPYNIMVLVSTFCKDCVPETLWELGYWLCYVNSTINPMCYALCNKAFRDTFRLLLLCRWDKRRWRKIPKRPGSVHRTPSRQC

`CNC(=O)c1cc(C(=O)NC2CC2)cn(Cc2ccccc2)c1=O` [GSK620] was tested, and the IC50 [1] was > 50.1 µM, the EC50 [2] was > 50.1 µM and the IC50 [2] was > 50.1 µM. For the same compound, the EC50 [3] was > 50.1 µM, the IC50 [4] was > 31.6 µM and the IC50 [5] was > 50.1 µM. For the same compound, the IC50 [6] was > 100 µM, the IC50 [7] was > 100 µM and the IC50 [8] was > 100 µM. For the same compound, the IC50 [9] was > 100 µM, the IC50 [10] was > 50.1 µM and the IC50 [11] was > 25.1 µM. The IC50 [12] was > 31.6 µM, the IC50 [13] was > 50.1 µM and the IC50 [14] was 79.4 µM. The IC50 [15] was > 100 µM, the pEC50 [16] was < 4 and the pIC50 [16] was < 4. For the same compound, the IC50 [17] was > 25.1 µM, the pEC50 [18] was < 4 and the inhibition [19] was 6.03%. For the same compound, the inhibition [20] was -3.67%, the inhibition [21] was -8.9% and the inhibition [22] was 16.5%. For the same compound, the inhibition [23] was 32.1%, the inhibition [24] was 14.3% and the inhibition [25] was -4.41%. For the same compound, the inhibition [26] was 10.9%, the inhibition [27] was 13.6% and the inhibition [28] was 6.94%. For the same compound, the inhibition [29] was -2.98%, the inhibition [30] was 1.54% and the inhibition [31] was 6.96%. For the same compound, the inhibition [32] was 18.6%, the inhibition [33] was 13.5% and the inhibition [34] was -2.78%. The inhibition [35] was 39.9%, the inhibition [36] was 8.55% and the inhibition [37] was -9.14%. It also gave an inhibition [38] of -8.16%, an inhibition [39] of 16.1% and an inhibition [40] of -0.64%. It also gave an inhibition [41] of 7.27%, an inhibition [42] of -4.53% and an inhibition [43] of 5.2%. For the same compound, the inhibition [44] was 0.69%, the inhibition [45] was -6.19% and the inhibition [46] was 16.5%. It also gave an inhibition [47] of 13.2%, an inhibition [48] of 21.4% and an inhibition [49] of 0.52%. For the same compound, the inhibition [50] was -5.05%, the inhibition [51] was 18.6% and the inhibition [52] was 28.2%. For the same compound, the inhibition [53] was 7.71%, the inhibition [54] was 2.36% and the inhibition [55] was 7.83%.
